{"source": "paper PMC6514812", "about": "“[^18F]Fluoroethyltriazolyl Monocyclam Derivatives as Imaging Probes for the Chemokine Receptor CXCR4” (Molecules, 2019)", "key": {"CXCR4 [1]": {"molecular_target": "T1, CXCR4 (Homo sapiens, UniProt P61073)", "T1 construct": "expressed in transfected cells; host or cells: PC3 (human prostate cancer) cells stably transduced with CXCR4", "T1 sequence (P61073 whole entry)": "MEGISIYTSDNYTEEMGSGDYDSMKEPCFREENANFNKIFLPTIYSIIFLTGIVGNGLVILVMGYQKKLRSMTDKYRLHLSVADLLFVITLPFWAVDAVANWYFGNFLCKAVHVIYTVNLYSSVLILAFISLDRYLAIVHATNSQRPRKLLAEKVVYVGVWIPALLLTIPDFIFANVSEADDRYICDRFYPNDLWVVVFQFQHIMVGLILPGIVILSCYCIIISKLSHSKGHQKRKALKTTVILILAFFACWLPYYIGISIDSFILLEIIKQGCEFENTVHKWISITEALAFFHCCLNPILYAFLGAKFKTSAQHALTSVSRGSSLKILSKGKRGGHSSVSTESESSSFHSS", "assay": "Competition binding assay vs [^68Ga]Pentixafor in PC3-CXCR4 cells", "experimental": "PC3-CXCR4 cells were plated in 12-well plates at a density of 500,000 cells per well and incubated for 48 h at 37 °C/5% CO2. Prior to the binding assay the cells were incubated in fresh media and 370–555 kBq of [^68Ga]Pentixafor or [^18F]RPS-544 was added to each well. The corresponding concentration of [^68Ga]Pentixafor in each well was 100 nM, and the concentration of [^18F]RPS-544 was approximately 5 pM. Then non-radioactive ligands were added to give a final ligand concentration in the range 0.001–10,000 nM. A total of eight concentrations were studied, and each concentration was tested in triplicate. The cells were incubated for 60 min at 37 °C/5% CO2. The media was removed under suction, the cells were washed with cold PBS 1X and detached and transferred to tubes for counting in 1 M NaOH. The cells were counted in a Wizard^2 Gamma Counter (PerkinElmer, Waltham, MA, USA). Non-specific binding was subtracted, and the IC50 values were determined by assuming a simple competitive binding interaction and fitting the data to a sigmoidal Hill plot in Origin 9.0 (OriginLab, Northampton, MA, USA). Potencies are expressed as IC50 ± standard deviation (Supplemental Data, Figure S7)."}, "CXCR4 [2]": {"molecular_target": "T1, CXCR4", "assay": "Saturation binding assay in PC3-CXCR4 cells", "experimental": "To determine the dissociation constants, saturation binding assays were performed in the PC3-CXCR4 cells. The cells were plated as described above, and approximately 5 nM of the radioligand was added to each well. Then the corresponding non-radioactive ligand was added to give a final concentration in the range 0.001–10,000 nM. A total of eight concentrations were tested, and each concentration was tested in triplicate. The samples were washed and counted as described above. Non-specific binding was subtracted, and Kd values were determined by performing a nonlinear one site binding curve fit with equation y = (Bmax · x)/(Kd + x). Values are expressed as Kd ± standard deviation (Supplemental Data, Figure S8)."}, "PC3-CXCR4 cells": {"test_system": "PC3-CXCR4 cells", "assay": "Cell-associated activity in PC3-CXCR4 cells", "assay_type": "cell-based, human", "conditions": "1 h", "experimental": "Maximum cell-associated activity was calculated by subtracting the cell uptake of the radioactive ligand at the highest non-radioactive ligand concentration of 10 µM (which we considered to be non-specific uptake/binding) from the cell uptake at the lowest non-radioactive ligand concentration of 10^−5 µM."}, "[3]": {"test_system": "PC3-CXCR4 xenograft tumors", "assay": "µPET/CT titration of tumor uptake by co-injection of AMD-3100 (block50)", "assay_type": "in vivo, BALB/c mice", "conditions": "co-injection of AMD-3100, µPET/CT 1 h p.i.; listed as [^18F]RPS-544", "experimental": "All animal studies were approved by the Institutional Animal Care and Use Committee of Weill Cornell Medicine (Protocol Number: 2015-0066) and were undertaken in accordance with the guidelines set forth by the USPHS Policy on Humane Care and Use of Laboratory Animals. Animals were housed under standard conditions in approved facilities with 12 h light/dark cycles. Food and water was provided ad libitum throughout the course of the studies. Hairless 6-to-8-week old male BALB/c inbred athymic nude mice (Jackson Laboratory, Bar Harbor, ME, USA) were inoculated bilaterally with 0.2 mL of a 1:1 mixture of 10^7 PC3-CXCR4 cells in PBS and Matrigel (Corning, Tewksbury, MA, USA) subcutaneously in the left shoulder and 0.2 mL of a 1:1 mixture of 10^7 PC3-WT cells in PBS and Matrigel subcutaneously in the right shoulder. […]\nFor the imaging studies, the tumor-bearing mice (n = 2/compound) were injected intravenously with 100 μL of a 9% v/v EtOH/saline solution containing approximately 3.7 MBq of the radioligand. […] Tumor uptake was quantified by the following procedure: CT-aided regions of interest were drawn, and tissue concentration was determined by comparison with a 3 %ID/cm^3 standard included in the field of view. Uptake was expressed as percent injected dose per centimeter cubed (%ID/cm^3) ± standard deviation."}, "[4]": {"test_system": "PC3-CXCR4 xenograft tumors", "design": "method as in PMID 29544122", "conditions": "cited from earlier work"}}, "note": "Read-outs that look alike come from different tables or passages of the source.", "data": [{"smiles": "Fc1cccc(CNCc2ccc(CN3CCCNCCNCCCNCC3)cc2)n1", "note": "[RPS-544]", "values": [{"measurement": "IC50", "setting": "CXCR4 [1]; vs 100 nM [^68Ga]Pentixafor, PC3-CXCR4 cells, 60 min 37 °C", "result": "6.3 ± 0.8", "unit": "nM"}, {"measurement": "Hill Slope, Competitive Binding Experiment", "setting": "CXCR4 [1]; vs [^68Ga]Pentixafor, value ± SD", "result": "1.13 ± 0.47"}, {"measurement": "Kd", "setting": "CXCR4 [2]; saturation binding, PC3-CXCR4 cells", "result": "5.1 ± 1", "unit": "nM"}, {"measurement": "Hill Slope, Saturation Binding Experiment", "setting": "CXCR4 [2]; value ± SD", "result": "1.06 ± 0.11"}, {"measurement": "Cell-Associated Activity", "setting": "PC3-CXCR4 cells", "result": "8.2 ± 0.3", "unit": "%IA"}, {"measurement": "Block50: dose of AMD-3100 reducing uptake in PC3-CXCR4 tumors by 50%", "setting": "[3]", "result": "0.17 ± 0.06", "unit": "mg/kg"}, {"measurement": "PC3-CXCR4 Tumor-to-Tissue Ratio Blood", "setting": "[4]; 1 h p.i.", "result": "2.5 ± 0.4"}, {"measurement": "PC3-CXCR4 Tumor-to-Tissue Ratio Bone", "setting": "[4]; 1 h p.i.", "result": "4.2 ± 1.2"}, {"measurement": "PC3-CXCR4 Tumor-to-Tissue Ratio Kidneys", "setting": "[4]; 1 h p.i.", "result": "0.1 ± 0.1"}, {"measurement": "PC3-CXCR4 Tumor-to-Tissue Ratio Liver", "setting": "[4]; 1 h p.i.", "result": "0.1 ± 0.1"}, {"measurement": "PC3-CXCR4 Tumor-to-Tissue Ratio Lungs", "setting": "[4]; 1 h p.i.", "result": "2.0 ± 1.2"}, {"measurement": "PC3-CXCR4 Tumor-to-Tissue Ratio Muscle", "setting": "[4]; 1 h p.i.", "result": "11.1 ± 0.4"}, {"measurement": "PC3-CXCR4 Tumor-to-Tissue Ratio PC3-WT", "setting": "[4]; 1 h p.i.", "result": "3.3 ± 1.3"}, {"measurement": "PC3-CXCR4 Tumor Uptake", "setting": "[4]; 1 h p.i., previously published data", "result": "3.4 ± 1.2", "unit": "%ID/g"}, {"measurement": "PC3-CXCR4 Tumor-to-Tissue Ratio Blood", "setting": "[4]; 2 h p.i.", "result": "4.8 ± 0.1"}, {"measurement": "PC3-CXCR4 Tumor-to-Tissue Ratio Bone", "setting": "[4]; 2 h p.i.", "result": "2.9 ± 0.3"}, {"measurement": "PC3-CXCR4 Tumor-to-Tissue Ratio Kidneys", "setting": "[4]; 2 h p.i.", "result": "0.1 ± 0.1"}, {"measurement": "PC3-CXCR4 Tumor-to-Tissue Ratio Liver", "setting": "[4]; 2 h p.i.", "result": "0.1 ± 0.1"}, {"measurement": "PC3-CXCR4 Tumor-to-Tissue Ratio Lungs", "setting": "[4]; 2 h p.i.", "result": "1.7 ± 0.3"}, {"measurement": "PC3-CXCR4 Tumor-to-Tissue Ratio Muscle", "setting": "[4]; 2 h p.i.", "result": "6.7 ± 0.2"}, {"measurement": "PC3-CXCR4 Tumor-to-Tissue Ratio PC3-WT", "setting": "[4]; 2 h p.i.", "result": "2.6 ± 0.3"}]}]}
